# Source: US20230151069A1, “Cyclic Peptides” (LIFEARC, priority 2020, published 2023)
# Assays:
# Tg4-42 mice = experiment: Spatial reference memory by Morris water maze in Tg4-42 mice; assay type: in vivo, mouse; settings: aged Tg4-42 mice, FIG. 31A
# Procedure: Tg4-42 mice were immunized at 6 weeks of age for 12 weeks with antigen [Thioacetal bridged Abeta peptide 1-14—KLH conjugate; DAC*[…]*HH[Cys]-amide (*S—CH—S bridged)] emulsified in complete Freund's adjuvant (CFA), followed by booster doses of protein emulsified in incomplete Freund's adjuvant (IFA). Booster injections of antigen emulsified in IFA was administered at day 14, day 28, day 42, thereafter monthly (3 times after month 4, 5 and 6), after immunization with antigen/CFA emulsion. Mice were acclimated at our facility for at least 7 days before immunization. Mice were injected with antigen emulsified in CFA or IFA subcutaneously at two sites on the back, injecting 0.05 to 0.1 mL at each site (total of 0.1 to 0.2 mL per mouse). […]
# Spatial reference memory in mice was evaluated using the Morris water maze (R. Morris, Developments of a water-maze procedure for studying spatial learning in the rat. J. Neurosci. Methods 11, 47-60 (1984)) as described previously (Y. Bouter et al., N-truncated amyloid beta (Abeta) 4-42 forms stable aggregates and induces acute and long-lasting behavioral deficits. Acta Neuropathol 126, 189-205 (2013)).
# The treatment effect of active immunization was assessed in 6.5 month old Tg4-42 mice on hippocampus-dependent learning and memory by the Morris water maze test (FIG. 31A) and by counting the total number of CA1 neurons in the hippocampus (FIG. 31B). […]
# [1] = system: full-length amyloid-beta 1-42; experiment: Reactivity of antibodies induced by the cyclic peptide with full-length amyloid-beta; assay type: in vivo; settings: antibodies induced by immunisation
# Procedure: • 1. Coat 384-well plate with 30 μL/well of 100 ng/ml PSL amyloid 1-42 peptide (Human-Peptide Specialty Laboratories-CEM1904161) diluted in carb/bicarb buffer • 2. Incubate at 37° C. for 1 hour • 3. Wash the plate (NUNC 384 program) • 4. […] Incubate at 4° C. overnight • 6. Wash the plate (NUNC 384 program) • 7. […] Transfer 30 μL/well onto the assay plate • 10. Incubate at 37° C. for 1 hour • 11. Wash the plate (NUNC 384 program) • 12. […] Incubate at 37° C. for 1 hour • 14. Wash the plate (NUNC 384 program) • 15. […] Incubate at RT for 10 min in the dark • 17. […] Coat 384-well plate with 30 μL/well of 100 ng/ml PSL amyloid pE3-42 peptide (Human-Peptide Specialty Laboratories-CEM062210 Pyr) diluted in carb/bicarb buffer • 2. Incubate at 37° C. for 1 hour • 3. Wash the plate (NUNC 384 program) • 4. […] Incubate at 4° C. overnight • 6. Wash the plate (NUNC 384 program) • 7. […] Transfer 30 μL/well onto the assay plate • 10. Incubate at 37° C. for 1 hour • 11. Wash the plate (NUNC 384 program) • 12. […] Incubate at 37° C. for 1 hour • 14. Wash the plate (NUNC 384 program) • 15. […] Incubate at RT for 10 min in the dark • 17.
# 5XFAD mice = experiment: Active immunisation, 18F-Florbetaben-PET/MRI amyloid-plaque imaging in 5XFAD mice; assay type: in vivo, mouse; settings: immunized 5XFAD mice, cortex, hippocampus and amygdala
# Procedure: 5XFAD mice were immunized at 6 weeks of age for 12 weeks with antigen [Thioacetal bridged amyloid-beta peptide 1-14—KLH conjugate; DAC*[…]*HH[Cys]-amide (*S—CH—S bridged, cyclised via positions 3 and 12)] emulsified in complete Freund's adjuvant (CFA), followed by booster doses of protein emulsified in incomplete Freund's adjuvant (IFA). Mice were acclimated at our facility for at least 7 days before immunization. Mice were injected with antigen emulsified in CFA subcutaneously at two sites on the back, injecting 0.05 to 0.1 mL at each site (total of 0.1 to 0.2 mL per mouse).
# Booster injections of antigen emulsified in IFA was administered at day 14, day 28, day 42 and 10 weeks after immunization with antigen/CFA emulsion. The booster is given as a single subcutaneous injection with 0.1 mL of IFA emulsion, at one site on the back. […]
# All images were analyzed using PMOD v3.9 (PMOD Technologies, Switzerland) as described before (Bouter et al). […] PET VOI statistics (kBq/cc) were generated for all brain areas and standardized uptake values (SUVs) were calculated [SUV=tissue activity concentration average (kBq/cc)×body weight (g)/injected dose (kBq)] for semi-quantitative analysis. SUVs of 18F-FDG-PET scans were corrected for measured blood glucose levels [SUVGIc=SUV x blood glucose level (mg/dl)]. […]
substance,measurement,setting,value
"DAC*FRHDSGYEC*HH[Cys]-amide (*S—CH—S bridged, cyclised via positions 3 and 12)","learning and memory deficits, Morris water maze probe trial",Tg4-42 mice; listed as 3-12 linked A61-14 cyclic peptide,substantial rescue of learning and memory deficits
same,"learning and memory deficits, Morris water maze probe trial",Tg4-42 mice; listed as cylised Aβ peptide,rescued memory deficits
same,reactivity of induced antibodies with full-length amyloid-beta 1-42,[1],do not react
same,amyloid-plaque signal (fluorbetaben retention),5XFAD mice,drastically reduced
